These results are taken from patent EP4631940A1, “COMPOUND TARGETING PAN-KRAS PROTEIN DEGRADATION AGENT AND USE THEREOF” (Betta Pharmaceuticals Co., Ltd., priority 2022, dated 2024).

Like-named read-outs stand apart in the source and are kept apart here.

The test system of one assay is AGS. The experiment in a line: Cell proliferation experiment (CellTiter-Glo). The assay is classed as cell-based. The settings on record: read-out: IC50(nM) AGS.
A further assay addresses KRAS G12D (Homo sapiens, UniProt P01116, G12D).
Setting [1] is: AGS, KRAS mutation type G12D, 96 h incubation.

KRAS G12D, sequence (P01116 1-188 isoform P01116-2 G12D): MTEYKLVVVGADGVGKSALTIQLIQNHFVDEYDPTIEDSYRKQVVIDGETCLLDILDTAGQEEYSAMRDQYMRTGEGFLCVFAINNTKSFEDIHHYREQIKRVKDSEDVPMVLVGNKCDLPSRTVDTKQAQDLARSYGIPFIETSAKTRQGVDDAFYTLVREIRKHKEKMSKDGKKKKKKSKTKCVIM

As to `C#Cc1c(F)ccc2cc(O)cc(-c3ncc4c(N5CCCOCC5)nc(OC[C@]56CCCN5[C@@H](COC(=O)N5CCC7(CC5)CC(C(=O)N[C@H](C(=O)N5C[C@H](O)C[C@H]5C(=O)N[C@@H](C)c5ccc(-c8scnc8C)cc5)C(C)(C)C)C7)CC6)nc4c3F)c12` [Compound 90], the IC50 with AGS stood at 83 nM.

Consider `C=C1CN2[C@H](COC(=O)N3CCN(c4cc([C@H](C(=O)N5C[C@H](O)C[C@H]5C(=O)N[C@@H](C)c5ccc(-c6scnc6C)cc5)C(C)C)on4)CC3)CC[C@@]2(COc2nc(N3CCC[C@@](C)(O)C3)c3cnc(-c4cc(O)cc5ccc(F)c(CC)c45)c(F)c3n2)C1` [Compound 110], for which the IC50 with AGS was 52 nM. As to `C=C1CN2[C@H](CN3CCC(c4cn([C@H](C(=O)N5C[C@H](O)C[C@H]5C(=O)N[C@@H](C)c5ccc(-c6scnc6C)cc5)C(C)C)nn4)CC3)CC[C@@]2(COc2nc(N3CCC[C@@](C)(O)C3)c3cnc(-c4cc(O)cc5ccc(F)c(CC)c45)c(F)c3n2)C1` [Compound 123], in the assay on AGS (Homo sapiens, AGS, 96 h), the IC50 stood at 82 nM. Moreover, at KRAS G12D, the DC50 turned out to be 122 nM. For `CCc1c(F)ccc2cc(O)cc(-c3ncc4c(N5CCC[C@@](C)(O)C5)nc(OCC5(CN6CCN(C7CCN(c8cc([C@H](C(=O)N9C[C@H](O)C[C@H]9C(=O)N[C@H](C)c9ccc(-c%10scnc%10C)cc9)C(C)C)on8)CC7)CC6)CC5)nc4c3F)c12` [Compound 164], the IC50 in the assay with AGS (setting [1]) worked out at 38 nM. As for `CCc1c(F)ccc2cc(O)cc(-c3ncc4c(N5CCC[C@@](C)(O)C5)nc(OCC5(CN6CCN(C7CC(c8cn([C@H](C(=O)N9C[C@H](O)C[C@H]9C(=O)N[C@@H](C)c9ccc(-c%10scnc%10C)cc9)C(C)C)nn8)C7)CC6)CC5)nc4c3F)c12` (stereo partly drawn) [Compound 165, (2S,4R)-1-((S)-2-(4-(3-(4-((1-(((7-(8-ethyl-7-fluoro-3-hydroxynaphthalen-1-yl)-8-fluoro-4-((R)-3-hydroxy-3-methylpiperidin-1-yl)pyrido[4,3-d]pyrimidin-2-yl)oxy)methyl)cyclopropyl)methyl)piperazin-1-yl)cyclobutyl)-1H-1,2,3-triazol-1-yl)-3-methylbutanoyl)-4-hydroxy-N-((S)-1-(4-(4-methylthiazol-5-yl)phenyl)ethyl)pyrrolidine-2-carboxamide], in the assay with AGS (Homo sapiens, AGS, 96 h), the half-maximal inhibitory concentration (IC50) turned out to be 9.2 nM.

Regarding `CCc1c(F)ccc2cc(O)cc(-c3ncc4c(N5CCC[C@@](C)(O)C5)nc(OCC5(CN6CCC(Oc7ccc(-c8cn([C@H](C(=O)N9C[C@H](O)C[C@H]9C(=O)N[C@@H](C)c9ccc(-c%10scnc%10C)cc9)C(C)C)nn8)nn7)CC6)CC5)nc4c3F)c12` [Compound 167], the IC50 in the assay with AGS (setting [1]) came out at 8.8 nM. On the same count and under the same terms, the value for `CCc1c(F)ccc2cc(O)cc(-c3ncc4c(N5CCC[C@@](C)(O)C5)nc(OCC5(CN6CCC(Oc7ccc(-c8cn([C@H](C(=O)N9C[C@H](O)C[C@H]9C(=O)N[C@@H](CO)c9ccc(-c%10scnc%10C)cc9)C(C)C)nn8)cn7)CC6)CC5)nc4c3F)c12` [Compound 171] was 13 nM. For the compound `CCc1c(F)ccc2cc(O)cc(-c3ncc4c(N5CCC[C@@](C)(O)C5)nc(OCC5(CN6CCC(Oc7cnc(-c8cn([C@H](C(=O)N9C[C@H](O)C[C@H]9C(=O)N[C@@H](CO)c9ccc(-c%10ccnn%10CC)cc9)C(C)C)nn8)cn7)CC6)CC5)nc4c3F)c12` [Compound 172], in the assay with AGS, the IC50 worked out at 3.6 nM. In the case of `CCc1c(F)ccc2cc(O)cc(-c3ncc4c(N5CCC[C@@](C)(O)C5)nc(OCC5(CN6CCC(Oc7ncc(-c8cn([C@H](C(=O)N9C[C@H](O)C[C@H]9C(=O)N[C@@H](C)c9ccc(-c%10scnc%10C)cc9)C(C)C)nn8)s7)CC6)CC5)nc4c3F)c12` [Compound 181], in the assay with AGS (setting [1]), the IC50 is 11 nM.

On to `CCc1c(F)ccc2cc(O)cc(-c3ccc4c(N5CCC[C@@](C)(O)C5)nc(OCC5(CN6CCC7(CC6)CN(c6cnc(-c8cn([C@H](C(=O)N9C[C@H](O)C[C@H]9C(=O)N[C@@H](C)c9ccc(-c%10scnc%10C)cc9)C(C)C)nn8)cn6)C7)CC5)nc4c3F)c12` [Compound 186], for which the IC50 with AGS (setting [1]) was 20 nM. `CCc1c(F)ccc2cc(O)cc(-c3ncc4c(N5CCC[C@@](C)(O)C5)nc(OCC5(CN6CCN(Cc7cnc(-c8cn([C@H](C(=O)N9C[C@H](O)C[C@H]9C(=O)N[C@@H](C)c9ccc(-c%10scnc%10C)cc9)C(C)C)nn8)s7)CC6)CC5)nc4c3F)c12` [Compound 187]: in the assay on AGS (setting [1]), the IC50 was found to be 7.5 nM.

With “(2S,4R)-1-((S)-2-(4-(1-((1-((1-(((7-(8-ethyl-7-fluoro-3-hydroxynaphthalen-1-yl)-8-fluoro-4-((R)-3-hydroxy-3-methylpiperidin-1-yl)pyrido[4,3-d]pyrimidin-2-yl)oxy)methyl)cyclopropyl)methyl) piperidin-4-yl)methyl)-1H-pyrazol-4-yl)-1H-1,2,3-triazol-1-yl)-3-methylbutanoyl)-4-hydroxy-N-((S)-1-(4-(4-methylthiazol-5-yl)phenyl)ethyl)pyrrolidine-2-carboxamide [Compound 182]”, in the assay with AGS, the IC50 amounted to 24 nM. For “(2S,4R)-1-((S)-2-(4-(1-((1-((1-(((7-(8-ethyl-7-fluoro-3-hydroxynaphthalen-1-yl)-8-fluoro-4-((R)-3-hydroxy-3-methylpiperidin-1-yl)pyrido[4,3-d]pyrimidin-2-yl)oxy)methyl)piperidin-4-yl)methy l)azetidin-3-yl)-1H-1,2,3-triazol-1-yl)-3-methylbutanoyl)-4-hydroxy-N-((S)-1-(4-(4-methylthiaz ol-5-yl)phenyl)ethyl)pyrrolidine-2-carboxamide [Compound 129]”, the IC50 with AGS (setting [1]) amounted to 37 nM. As for “(2S,4R)-1-((S)-2-(4-(3-((1-((1-((7-(8-ethyl-7-fluoro-3-hydroxynaphthalen-1-yl)-8-fluoro-4-((R)-3-hydroxy-3-methylpiperidin-1-yl)pyrido[4,3-d]pyrimidin-2-yl)oxy)methyl)cyclopropyl)methyl) piperidin-4-yl)methyl)amino)bicyclo[1.1.1]pent-1-yl)-1H-1,3-triazol-1-yl)-3-methylbutanoyl)-4-hydroxy-N-((S)-1-(4-(4-methylthiazol-5-yl)phenyl)ethyl)pyrrolidine-2-carboxamide [Compound 180]”, the IC50 with AGS (setting [1]) stood at 20 nM. “(2S,4R)-1-((S)-2-(4-(5-(1-((1-((7-(8-ethyl-7-fluoro-3-hydroxynaphthalen-1-yl)-8-fluoro-4-((R)-3 -hydroxy-3-methylpiperidin-1-yl)pyrido[4,3-d]pyrimidin-2-yl)oxy)methyl)cyclopropyl)methyl)p iperidin-4-yl)oxy)pyrimidin-2-yl)-1H-1,2,3-triazol-1-yl)-3-methylbutanoyl)-4-hydroxy-N-((S)-1-(4-hydroxyl-N-(4-(4-methylthiazol-5-yl)phenyl)ethyl)pyrrolidine-2-carboxamide [Compound 169]”: the IC50 in the assay with AGS (setting [1]) was found to be 20 nM. Still for that read-out and setting: under “(2S,4R)-1-((S)-2-(4-(5-(7-((7-(8-ethyl-7-fluoro-3-hydroxynaphthalen-1-yl)-8-fluoro-4-((R)-3-hy droxy-3-methylpiperidin-1-yl)pyrido[4,3-d]pyrimidin-2-yl)oxy)methyl)cyclopropyl)methyl)-2,7-azaspiro[3.5]nonan-2-yl)pyrazin-2-yl)-1H-1,2,3-triazol-1-yl)-3-methylbutanoyl)-4-hydroxy-N-(( S)-1-(4-methylthiazol-5-yl)phenyl)ethyl)pyrrolidine-2-carboxamide [Compound 168]” stands 5.6 nM. “(2S,4R)-1-((S)-2-(4-(5-((4-((1-(((7-(8-ethyl-7-fluoro-3-hydroxynaphthalen-1-yl)-8-fluoro-4-((R)-3-hydroxy-3-methylpiperidin-1-yl)pyrido[4,3-d]pyrimidin-2-yl)oxy)methyl)cyclopropyl)methyl) piperazin-1-yl)methyl)piperazin-3-yl)-1H-1,2,3-triazol-1-yl)-3-methylbutanoyl)-4-hydroxy-N-((S )-1-(4-(4-methylthiazol-5-yl)phenyl)ethyl)pyrrolidine-2-carboxamide [Compound 177]”: the IC50 in the assay on AGS came to 4.2 nM. As to “(2S,4R)-1-((S)-2-(4-(5-((((3R,7aR)-7a-(((7-(8-ethyl-7-fluoro-3-hydroxynaphthalen-1-yl)-8-fluor o-4-((R)-3-hydroxy-3-methylpiperidin-l-yl)pyrido[4,3-d]pyrimidin-2-yl)oxy)methyl)hexahydro-1H-pyrrolizin-3-yl)methoxy)pyrazin-2-yl)-1H-1,2,3-triazol-1-yl)-3-methylbutanoyl)-4-hydroxy-N-((S)-1-(4-(4-methylthiazol-5-yl)phenyl)ethyl)pyrrolidine-2-carboxamide [Compound 188]”, the IC50 with AGS (setting [1]) amounted to 12 nM. Consider “(2S,4R)-1-((S)-2-(4-(6-((1-((1-(((7-(8-ethyl-7-fluoro-3-hydroxynaphthalen-1-yl)-8-fluoro-4-((R)-3-hydroxy-3-methylpiperidin-1-yl)pyrido[4,3-d]pyrimidin-2-yl)oxy)methyl)cyclopropyl)methyl) -4-methylpiperidin-4-yl)oxy)piperidin-3-yl)-1H-1,2,3-triazol-1-yl)-3-methylbutanoyl)-4-hydroxy -N-((S)-1-(4-(4-methylthiazol-5-yl)phenyl)ethyl)pyrrolidine-2-carboxamide [Compound 176]”, for which, in the assay on AGS, the IC50 was 33 nM.

Regarding “(2S,4R)-1-((S)-2-(4-(6-((4-((1-(((7-(8-ethyl-7-fluoro-3-hydroxynaphthalen-1-yl)-8-fluoro-4-((R)-3-hydroxy-3-methylpiperidin-1-yl)pyrido[4,3-d]pyrimidin-2-yl)oxy)methyl)cyclopropyl)methyl) pyridin-1-yl)methyl)pyridin-3-yl)-1H-1,2,3-triazol-1-yl)-3-methylbutanoyl)-4-hydroxy-N-((S)-1-(4-(4-methylthiazol-5-yl)phenyl)ethyl)pyrrolidine-2-carboxamide [Compound 179]”, the IC50 in the assay with AGS came out at 27 nM. For “(3S,7aS)-7a-((7-(7-(8-ethyl-7-fluoro-3-hydroxynaphthalen-1-yl)-8-fluoro-4-((R)-3-hydroxy-3-m ethylpiperidin-1-yl)pyrido[4,3-d]pyrimidin-2-yl)pyrimidin-2-yl)oxy)methyl)-6-methylenehexahy dro-1H-pyrrolizin-3-yl)methyl-4-(((5-(R)-1-(2S,4R)-4-hydroxy-2-(((S)-1-(4-(4-methylthiazol-5-yl)phenyl)ethyl)carbamoyl)pyrrolidin-1-yl)-3-methyl-1-oxobutan-2-yl)isoxazol-3-yl)oxy)methyl )piperidine-1-carboxylate [Compound 125]”, the IC50 in the assay on AGS (setting [1]) is 52 nM.
